{"source": "ChEMBL document CHEMBL1201862", "about": "“PubChem BioAssay data set” (2004)", "key": {"[1]": {"molecular_target": "T1, Mannose-6-phosphate isomerase (Homo sapiens, UniProt P34949)", "T1 sequence (P34949 whole entry)": "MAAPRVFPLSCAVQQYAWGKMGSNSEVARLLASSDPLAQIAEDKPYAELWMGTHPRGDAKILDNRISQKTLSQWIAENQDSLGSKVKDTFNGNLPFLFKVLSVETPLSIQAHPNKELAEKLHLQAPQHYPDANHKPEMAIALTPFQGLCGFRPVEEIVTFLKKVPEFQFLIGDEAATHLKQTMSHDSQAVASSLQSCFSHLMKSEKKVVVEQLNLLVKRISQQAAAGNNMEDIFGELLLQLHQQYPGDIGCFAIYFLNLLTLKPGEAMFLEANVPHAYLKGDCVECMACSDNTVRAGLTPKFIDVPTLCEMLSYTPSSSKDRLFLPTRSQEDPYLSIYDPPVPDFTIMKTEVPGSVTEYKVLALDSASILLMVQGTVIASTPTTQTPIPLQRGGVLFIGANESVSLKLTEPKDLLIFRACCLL", "assay": "MPI enzyme activity inhibition – biochemical, fluorescence intensity, coupled assay, primary screen (AID 1209)"}, "[2]": {"assay": "Luminescence Cell-Based Dose Response HTS to Identify Inhibitors of 5'UTR Stem-Loop Driven Prion Protein mRNA Translation in H4 Neuroglioblastoma Cells. [Related pubchem assays: 1827 (Project Summary), 1813 (Primary HTS)]", "assay_type": "functional"}, "[3]": {"molecular_target": "Histone-lysine N-methyltransferase NSD2 (Homo sapiens, UniProt O96028)", "assay_type": "biochemical"}, "[4]": {"molecular_target": "Dual specificity protein kinase CLK2 (Homo sapiens, UniProt P49760)", "assay_type": "functional"}, "[5]": {"molecular_target": "Protein kinase C gamma type (Homo sapiens, UniProt P05129)", "assay_type": "functional"}, "[6]": {"molecular_target": "Serine/threonine-protein kinase PLK4 (Homo sapiens, UniProt O00444)", "sequence (O00444 whole entry)": "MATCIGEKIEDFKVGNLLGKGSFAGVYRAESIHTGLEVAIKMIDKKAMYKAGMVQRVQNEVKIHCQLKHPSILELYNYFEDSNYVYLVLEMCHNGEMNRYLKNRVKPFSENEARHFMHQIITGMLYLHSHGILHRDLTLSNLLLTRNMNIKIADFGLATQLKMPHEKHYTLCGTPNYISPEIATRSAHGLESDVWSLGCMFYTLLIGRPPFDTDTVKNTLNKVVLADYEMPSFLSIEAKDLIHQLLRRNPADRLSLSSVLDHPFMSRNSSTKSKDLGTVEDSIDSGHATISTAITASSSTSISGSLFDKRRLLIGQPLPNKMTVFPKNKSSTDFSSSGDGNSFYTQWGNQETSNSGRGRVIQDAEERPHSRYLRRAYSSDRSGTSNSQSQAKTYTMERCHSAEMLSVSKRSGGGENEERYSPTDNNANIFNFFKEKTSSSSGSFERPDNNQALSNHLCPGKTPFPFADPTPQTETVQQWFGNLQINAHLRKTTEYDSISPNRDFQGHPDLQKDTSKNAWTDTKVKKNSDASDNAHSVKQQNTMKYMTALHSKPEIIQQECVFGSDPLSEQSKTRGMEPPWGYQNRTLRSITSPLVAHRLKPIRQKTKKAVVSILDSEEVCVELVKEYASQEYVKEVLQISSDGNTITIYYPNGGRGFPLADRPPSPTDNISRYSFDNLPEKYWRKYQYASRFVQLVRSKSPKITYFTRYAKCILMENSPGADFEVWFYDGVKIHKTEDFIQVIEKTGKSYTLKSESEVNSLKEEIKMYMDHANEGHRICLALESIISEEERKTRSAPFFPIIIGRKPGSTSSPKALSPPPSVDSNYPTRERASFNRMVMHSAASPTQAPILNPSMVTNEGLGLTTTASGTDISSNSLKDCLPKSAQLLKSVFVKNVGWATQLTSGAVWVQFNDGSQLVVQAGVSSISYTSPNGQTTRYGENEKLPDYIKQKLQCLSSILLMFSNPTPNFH", "assay_type": "functional"}, "[7]": {"molecular_target": "MAP/microtubule affinity-regulating kinase 3 (Homo sapiens, UniProt P27448)", "assay_type": "functional"}, "[8]": {"molecular_target": "Megakaryocyte-associated tyrosine-protein kinase (Homo sapiens, UniProt P42679)", "assay_type": "functional"}, "[9]": {"molecular_target": "Homeodomain-interacting protein kinase 4 (Homo sapiens, UniProt Q8NE63)", "sequence (Q8NE63 whole entry)": "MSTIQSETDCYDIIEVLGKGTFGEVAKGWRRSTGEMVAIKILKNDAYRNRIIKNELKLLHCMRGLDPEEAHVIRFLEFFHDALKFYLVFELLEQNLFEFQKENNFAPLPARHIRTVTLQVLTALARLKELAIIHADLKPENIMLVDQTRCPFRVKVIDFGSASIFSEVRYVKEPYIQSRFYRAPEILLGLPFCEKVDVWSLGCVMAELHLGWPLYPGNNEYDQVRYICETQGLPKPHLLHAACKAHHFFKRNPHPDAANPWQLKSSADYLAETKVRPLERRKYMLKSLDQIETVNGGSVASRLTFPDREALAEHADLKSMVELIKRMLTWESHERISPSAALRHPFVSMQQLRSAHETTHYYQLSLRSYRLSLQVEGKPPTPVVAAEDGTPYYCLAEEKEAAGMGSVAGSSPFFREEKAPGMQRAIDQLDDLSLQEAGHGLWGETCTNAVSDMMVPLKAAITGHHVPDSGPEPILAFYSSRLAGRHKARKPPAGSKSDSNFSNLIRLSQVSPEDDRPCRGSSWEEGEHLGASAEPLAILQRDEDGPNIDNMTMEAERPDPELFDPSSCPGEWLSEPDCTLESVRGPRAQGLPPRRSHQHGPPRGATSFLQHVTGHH", "assay_type": "functional"}, "[10]": {"molecular_target": "Dual specificity tyrosine-phosphorylation-regulated kinase 1B (Homo sapiens, UniProt Q9Y463)", "assay": "Navigating the Kinome. Panel member name: DYRK1B", "assay_type": "functional"}, "[11]": {"molecular_target": "RAC-gamma serine/threonine-protein kinase (Homo sapiens, UniProt Q9Y243)", "assay_type": "functional"}, "[12]": {"molecular_target": "Serine/threonine-protein kinase MRCK alpha (Homo sapiens, UniProt Q5VT25)", "sequence (Q5VT25 whole entry)": "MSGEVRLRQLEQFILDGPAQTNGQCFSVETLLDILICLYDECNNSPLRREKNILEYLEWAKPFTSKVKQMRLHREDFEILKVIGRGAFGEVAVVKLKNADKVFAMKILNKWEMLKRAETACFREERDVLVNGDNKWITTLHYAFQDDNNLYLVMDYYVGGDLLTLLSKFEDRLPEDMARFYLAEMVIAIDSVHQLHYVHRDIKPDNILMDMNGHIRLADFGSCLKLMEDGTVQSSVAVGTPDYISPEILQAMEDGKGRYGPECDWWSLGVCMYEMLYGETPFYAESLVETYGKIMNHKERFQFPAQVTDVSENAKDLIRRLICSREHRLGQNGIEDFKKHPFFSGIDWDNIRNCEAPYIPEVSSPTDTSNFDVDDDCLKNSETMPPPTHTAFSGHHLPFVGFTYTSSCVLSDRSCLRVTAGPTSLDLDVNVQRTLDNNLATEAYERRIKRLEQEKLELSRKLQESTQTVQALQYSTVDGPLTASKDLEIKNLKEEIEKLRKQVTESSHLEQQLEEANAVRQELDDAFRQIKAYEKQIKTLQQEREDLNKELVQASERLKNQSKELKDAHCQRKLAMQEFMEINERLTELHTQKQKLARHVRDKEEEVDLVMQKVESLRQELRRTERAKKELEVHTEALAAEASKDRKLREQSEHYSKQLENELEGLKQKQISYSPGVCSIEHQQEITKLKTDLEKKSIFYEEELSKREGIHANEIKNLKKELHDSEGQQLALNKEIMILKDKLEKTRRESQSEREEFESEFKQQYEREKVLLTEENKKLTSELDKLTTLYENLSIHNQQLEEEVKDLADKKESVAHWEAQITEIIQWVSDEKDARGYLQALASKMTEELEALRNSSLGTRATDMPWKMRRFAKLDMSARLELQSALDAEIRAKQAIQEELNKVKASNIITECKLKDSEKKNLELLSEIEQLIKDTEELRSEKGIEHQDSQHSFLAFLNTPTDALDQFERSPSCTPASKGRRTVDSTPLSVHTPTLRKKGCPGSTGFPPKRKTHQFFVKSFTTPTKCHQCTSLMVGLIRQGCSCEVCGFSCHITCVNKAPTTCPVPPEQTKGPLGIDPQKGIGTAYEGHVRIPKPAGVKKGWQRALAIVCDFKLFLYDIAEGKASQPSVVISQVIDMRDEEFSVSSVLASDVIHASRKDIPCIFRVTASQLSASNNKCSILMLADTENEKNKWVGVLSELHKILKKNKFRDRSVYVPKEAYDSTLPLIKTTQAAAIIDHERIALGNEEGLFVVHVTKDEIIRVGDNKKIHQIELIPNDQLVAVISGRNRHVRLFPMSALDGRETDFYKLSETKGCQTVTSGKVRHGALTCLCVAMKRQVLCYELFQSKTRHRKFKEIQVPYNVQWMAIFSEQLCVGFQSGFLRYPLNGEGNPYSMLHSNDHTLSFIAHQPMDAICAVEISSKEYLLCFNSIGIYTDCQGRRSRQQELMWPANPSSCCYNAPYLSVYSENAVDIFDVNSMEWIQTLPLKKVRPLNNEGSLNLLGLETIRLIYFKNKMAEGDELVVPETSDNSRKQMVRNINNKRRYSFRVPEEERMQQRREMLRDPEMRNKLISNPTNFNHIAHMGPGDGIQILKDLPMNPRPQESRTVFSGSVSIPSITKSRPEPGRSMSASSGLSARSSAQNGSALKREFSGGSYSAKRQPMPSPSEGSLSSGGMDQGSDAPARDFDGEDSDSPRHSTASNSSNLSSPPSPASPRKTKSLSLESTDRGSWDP", "assay_type": "functional"}, "[13]": {"molecular_target": "Protein kinase C iota type (Homo sapiens, UniProt P41743)", "assay_type": "functional"}, "[14]": {"molecular_target": "Serine/threonine-protein kinase pim-2 (Homo sapiens, UniProt Q9P1W9)", "sequence (Q9P1W9 whole entry)": "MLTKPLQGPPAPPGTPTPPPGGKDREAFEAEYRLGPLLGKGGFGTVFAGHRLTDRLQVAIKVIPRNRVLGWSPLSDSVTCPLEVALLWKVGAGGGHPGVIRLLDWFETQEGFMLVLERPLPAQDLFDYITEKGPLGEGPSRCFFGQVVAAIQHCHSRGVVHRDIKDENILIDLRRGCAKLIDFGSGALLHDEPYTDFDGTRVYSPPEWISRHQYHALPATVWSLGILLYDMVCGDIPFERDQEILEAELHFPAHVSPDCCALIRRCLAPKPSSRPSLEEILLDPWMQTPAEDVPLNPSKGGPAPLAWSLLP", "assay_type": "functional"}, "[15]": {"molecular_target": "Dual specificity tyrosine-phosphorylation-regulated kinase 1A (Homo sapiens, UniProt Q13627)", "assay_type": "functional"}, "[16]": {"molecular_target": "Inhibitor of nuclear factor kappa-B kinase subunit epsilon (Homo sapiens, UniProt Q14164)", "assay": "Navigating the Kinome. Panel member name: IKBKE", "assay_type": "functional"}, "[17]": {"molecular_target": "Tyrosine-protein kinase BTK (Homo sapiens, UniProt Q06187)", "assay_type": "functional"}, "[18]": {"molecular_target": "Receptor tyrosine-protein kinase erbB-2 (Homo sapiens, UniProt P04626)", "sequence (P04626 whole entry)": "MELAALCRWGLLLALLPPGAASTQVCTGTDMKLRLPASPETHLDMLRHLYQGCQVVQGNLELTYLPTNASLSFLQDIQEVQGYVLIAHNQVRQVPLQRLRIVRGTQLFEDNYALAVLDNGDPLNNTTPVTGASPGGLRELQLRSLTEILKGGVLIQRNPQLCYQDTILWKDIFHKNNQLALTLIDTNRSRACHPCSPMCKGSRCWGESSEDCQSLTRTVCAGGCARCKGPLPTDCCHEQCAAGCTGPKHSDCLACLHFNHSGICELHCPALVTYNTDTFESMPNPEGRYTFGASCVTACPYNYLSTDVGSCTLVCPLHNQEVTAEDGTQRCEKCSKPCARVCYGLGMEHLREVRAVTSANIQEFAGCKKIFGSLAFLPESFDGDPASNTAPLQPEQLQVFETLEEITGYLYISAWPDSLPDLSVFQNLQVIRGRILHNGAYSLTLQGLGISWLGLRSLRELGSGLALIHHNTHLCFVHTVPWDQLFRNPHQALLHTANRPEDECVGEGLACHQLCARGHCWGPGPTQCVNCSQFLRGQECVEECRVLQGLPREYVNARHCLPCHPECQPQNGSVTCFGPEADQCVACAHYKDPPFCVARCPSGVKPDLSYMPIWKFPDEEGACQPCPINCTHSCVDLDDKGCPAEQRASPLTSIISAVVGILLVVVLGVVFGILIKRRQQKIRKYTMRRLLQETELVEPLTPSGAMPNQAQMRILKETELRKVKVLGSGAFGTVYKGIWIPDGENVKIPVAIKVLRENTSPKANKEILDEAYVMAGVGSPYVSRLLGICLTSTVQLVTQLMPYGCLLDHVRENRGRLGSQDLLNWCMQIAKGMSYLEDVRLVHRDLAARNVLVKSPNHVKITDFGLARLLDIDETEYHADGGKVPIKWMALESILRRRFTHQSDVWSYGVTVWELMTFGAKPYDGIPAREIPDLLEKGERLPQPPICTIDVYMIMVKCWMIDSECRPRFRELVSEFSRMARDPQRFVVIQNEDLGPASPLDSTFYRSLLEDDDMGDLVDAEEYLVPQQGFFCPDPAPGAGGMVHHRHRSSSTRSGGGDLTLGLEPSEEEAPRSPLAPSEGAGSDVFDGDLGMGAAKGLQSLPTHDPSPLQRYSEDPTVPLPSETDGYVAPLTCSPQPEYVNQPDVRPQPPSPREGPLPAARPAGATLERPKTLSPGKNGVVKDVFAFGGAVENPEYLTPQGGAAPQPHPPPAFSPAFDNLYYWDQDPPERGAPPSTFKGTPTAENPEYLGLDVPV", "assay": "Navigating the Kinome. Panel member name: ERBB2", "assay_type": "functional"}, "[19]": {"molecular_target": "Cyclin-dependent kinase 5 (Homo sapiens, UniProt Q00535)", "assay_type": "functional"}, "[20]": {"molecular_target": "High affinity nerve growth factor receptor (Homo sapiens, UniProt P04629)", "assay_type": "functional"}, "[21]": {"molecular_target": "Serine/threonine-protein kinase BRSK1 (Homo sapiens, UniProt Q8TDC3)", "assay_type": "functional"}, "[22]": {"molecular_target": "Serine/threonine-protein kinase 3 (Homo sapiens, UniProt Q13188)", "assay_type": "functional"}, "[23]": {"molecular_target": "Cyclin-dependent kinase 8 (Homo sapiens, UniProt P49336)", "assay": "Navigating the Kinome. Panel member name: CDK8", "assay_type": "functional"}, "[24]": {"molecular_target": "Serine/threonine-protein kinase D2 (Homo sapiens, UniProt Q9BZL6)", "assay_type": "functional"}, "[25]": {"molecular_target": "Serine/threonine-protein kinase Chk1 (Homo sapiens, UniProt O14757)", "assay_type": "functional"}, "[26]": {"molecular_target": "cAMP-dependent protein kinase catalytic subunit PRKX (Homo sapiens, UniProt P51817)", "assay_type": "functional"}, "[27]": {"molecular_target": "Leukocyte tyrosine kinase receptor (Homo sapiens, UniProt P29376)", "assay": "Navigating the Kinome. Panel member name: LTK", "assay_type": "functional"}, "[28]": {"molecular_target": "Receptor tyrosine-protein kinase erbB-4 (Homo sapiens, UniProt Q15303)", "assay_type": "functional"}, "[29]": {"test_system": "A-375", "assay": "MITF: Counter assay: A375 proliferation Measured in Cell-Based System Using Plate Reader - 2084-03_Inhibitor_Dose_DryPowder_Activity. [Related pubchem assays (depositor defined):AID488944]", "assay_type": "functional", "conditions": "Homo sapiens"}}, "note": "The source made the active and inactive calls.", "data": [{"compound": "CC(C)N(C(=O)Nc1ccc2nsnc2c1)C(C)C", "values": [{"measurement": "IC50", "setting": "[1]", "result": "> 50 µM (not active)"}]}, {"compound": "NS(=O)(=O)c1ccc(NC2=CC(=O)C(=O)c3ccccc32)cc1", "values": [{"measurement": "EC50", "setting": "[2]", "result": "24.4 µM (active)"}, {"measurement": "AC50", "setting": "[3]", "result": "3.1 µM (active)"}]}, {"compound": "Clc1cc(-c2c[nH]c3ncccc23)nc(NC2CCCCC2)n1", "values": [{"measurement": "Ki", "setting": "[4]", "result": "> 1.26 µM (inactive)"}, {"measurement": "Ki", "setting": "[5]", "result": "1 µM (active)"}, {"measurement": "Ki", "setting": "[6]", "result": "> 3.98 µM (inactive)"}, {"measurement": "Ki", "setting": "[7]", "result": "0.158 µM (active)"}, {"measurement": "Ki", "setting": "[8]", "result": "> 2 µM (inactive)"}, {"measurement": "Ki", "setting": "[9]", "result": "1.26 µM (active)"}, {"measurement": "Ki", "setting": "[10]", "result": "0.00794 µM (active)"}, {"measurement": "Ki", "setting": "[11]", "result": "> 10 µM (inactive)"}, {"measurement": "Ki", "setting": "[12]", "result": "0.126 µM (active)"}, {"measurement": "Ki", "setting": "[13]", "result": "> 5.01 µM (inactive)"}, {"measurement": "Ki", "setting": "[14]", "result": "> 2 µM (inactive)"}, {"measurement": "Ki", "setting": "[15]", "result": "0.02 µM (active)"}, {"measurement": "Ki", "setting": "[16]", "result": "> 3.16 µM (inactive)"}, {"measurement": "Ki", "setting": "[17]", "result": "> 3.98 µM (inactive)"}, {"measurement": "Ki", "setting": "[18]", "result": "> 1.58 µM (inactive)"}, {"measurement": "Ki", "setting": "[19]", "result": "0.126 µM (active)"}, {"measurement": "Ki", "setting": "[20]", "result": "2 µM (active)"}, {"measurement": "Ki", "setting": "[21]", "result": "> 10 µM (inactive)"}, {"measurement": "Ki", "setting": "[22]", "result": "> 1.58 µM (inactive)"}, {"measurement": "Ki", "setting": "[23]", "result": "0.00398 µM (active)"}, {"measurement": "Ki", "setting": "[24]", "result": "0.2 µM (active)"}, {"measurement": "Ki", "setting": "[25]", "result": "3.98 µM (active)"}, {"measurement": "Ki", "setting": "[26]", "result": "> 1.26 µM (inactive)"}, {"measurement": "Ki", "setting": "[27]", "result": "> 2.51 µM (inactive)"}, {"measurement": "Ki", "setting": "[28]", "result": "> 3.98 µM (inactive)"}]}, {"compound": "CCC(=O)NC(c1ccccc1OC)c1ccc2cccnc2c1O", "note": "(centres undefined)", "values": [{"measurement": "AC50", "setting": "[29]", "result": "35 µM (active)"}]}]}
